Experimental data: patent publication US20090327175A1, “PHARMACOKINETIC MODELING OF MYCOPHENOLIC ACID” (priority 2006, published 2009)
Where two headings read alike, the source gives them in different places.

Assays:
[1] = 12 h plasma concentration/time profiles from six clinical studies of transplant patients receiving enteric coated mycophenolate salt (Myfortic); format: in vivo, human; conditions: for AUC(0-t): human, plasma, oral, enteric coated mycophenolate salt (Myfortic), read-out: MPA AUC0-12, mean and SD, measured
Procedure: 334, 12 h plasma concentration/time profiles (217 for de novo and 117 for stable patients) are available from six clinical studies of transplant patients receiving enteric coated composition containing mycophenolate salt (Myfortic®) as part of their immunosuppressive drug regimen. Using 20 randomly selected profiles, population PK models (two-compartment for stable patients and a one-compartment for de novo patients) are developed using a Bayesian approach (i.e. approach to statistics in which estimates are based on a synthesis of a prior distribution and current sample data) to estimate the model parameters. The remaining profiles are used to test and validate the models.

[2] = immediately post-transplantation; cited from earlier work

- share of de novo patients below lower end of target range for MPA AUC0-12 (30 mg/L·h) ([1]; fixed dose of 720 mg bid, during the two weeks after transplantation): 50%
- AUC(0-t) ([1]; 720 mg bid, de novo patients transplanted within the previous two weeks): 32200 ± 17500 ng·h/mL
- AUC(0-t) ([1]; stable patients): 65100 ± 26000 ng·h/mL
SMILES: COc1c(C)c2c(c(O)c1C/C=C(\C)CCC(=O)O)C(=O)OC2 [MPA, mycophenolic acid]
- optimal target MPA AUC0-12 suggested by previous controlled studies [2]: ~45 mg·h/L
